According to patent publication US5972898A, “3',3-N-bis-substituted macrolide LHRH antagonists” (Abbott Laboratories, priority 1998, dated 1999):

What was measured:
rat pituitary cells = target: T1, rat pituitary cells (Rattus norvegicus, UniProt P30969); test: LH inhibition from rat pituitary cells for antagonist potency (pA2); assay type: cell-based; details: negative log of antagonist concentration shifting the leuprolide response curve to two-fold higher concentration
T1 construct: endogenous in cells; host or cells: rat pituitary cells
T1 sequence (P30969 1-327): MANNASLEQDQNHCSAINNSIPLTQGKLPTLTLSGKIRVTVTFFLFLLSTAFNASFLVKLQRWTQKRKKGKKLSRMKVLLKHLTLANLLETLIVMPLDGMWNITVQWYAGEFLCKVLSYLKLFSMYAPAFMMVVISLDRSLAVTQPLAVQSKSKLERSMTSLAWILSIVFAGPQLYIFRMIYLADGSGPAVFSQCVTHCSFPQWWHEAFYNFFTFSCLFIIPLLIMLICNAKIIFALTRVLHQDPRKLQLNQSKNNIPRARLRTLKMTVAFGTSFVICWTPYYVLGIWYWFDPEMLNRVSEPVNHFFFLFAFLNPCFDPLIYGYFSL
Experimental: Representative compounds of the present invention were evaluated in in vitro tests for LHRH rat pituitary receptor binding (pKI) and for LH inhibition from rat pituitary cells for antagonist potency (pA2). The tests employed the methods detailed in F. Haviv, et al. J. Med. Chem., 2340-2344 (1989). The receptor binding affinity (pKI) is the negative equilibrium dissociation constants.
The pA2 value is the negative logarithm of the concentration of antagonist which shifts the response curve produced by the agonist leuprolide to two-fold higher concentration. Leuprolide is the LHRH agonist having the structure pyro-Glu^1 -His^2 -Trp^3 -Ser^4 -Tyr^5 -D-Leu^6 -Leu^7 -Arg^8 -Pro^9 -NHEt and is disclosed and claimed in U.S. Pat. No. 4,005,063. Typically pA2 values of 7.0 or greater are indicative of good LHRH antagonist potency.

[1] = target: T2, LHRH rat pituitary receptor (Rattus norvegicus, UniProt P30969); test: LHRH rat pituitary receptor binding (pKI); details: in vitro; for Ki: read-out: pKI (receptor binding affinity) (converted)
T2 construct: from tissue; host or cells: rat pituitary
T2 sequence (P30969 1-327): T1 sequence (P30969 1-327)
Experimental: Representative compounds of the present invention were evaluated in in vitro tests for LHRH rat pituitary receptor binding (pKI) and for LH inhibition from rat pituitary cells for antagonist potency (pA2). […] The receptor binding affinity (pKI) is the negative equilibrium dissociation constants.

| Compound | pA2 (rat pituitary cells) | pKI (receptor binding affinity) [1] | Kb (rat pituitary cells) [nM] | Ki [1] [nM] |
| --- | --- | --- | --- | --- |
| CC[C@H]1OC(=O)[C@H](C)[C@@H](O[C@H]2C[C@@](C)(OC)[C@@H](O)[C@H](C)O2)[C@H](C)[C@@H](O[C@@H]2O[C@H](C)C[C@H](N(C3CCC3)C3CCC3)[C@H]2O)[C@](C)(OC)C[C@@H](C)C(=O)[C@H](C)[C@H]2N(CCc3ccc(Cl)cc3)C(=O)O[C@]12C [Example 4, 3',3'-N-Bisdesmethyl-3',3'-N-biscyclobutyl-11-deoxy-11-[carboxy-(4-chlorophenethylamino)]-6-O-methyl-erythromycin A 11,12-(cyclic carbamate)] |  |  | 0.126 | 2.4 |
| CC[C@H]1OC(=O)[C@H](C)[C@@H](O[C@H]2C[C@@](C)(OC)[C@@H](O)[C@H](C)O2)[C@H](C)[C@@H](O[C@@H]2O[C@H](C)C[C@H](N(C3CCC3)C3CCC3)[C@H]2O)[C@](C)(OC)C[C@@H](C)C(=O)[C@H](C)[C@H]2N(CCc3ccc(Cl)c(Cl)c3)C(=O)O[C@]12C [Example 2] |  |  | 5.37 | 3.16 |
| CC[C@H]1OC(=O)[C@H](C)[C@@H](O[C@H]2C[C@@](C)(OC)[C@@H](O)[C@H](C)O2)[C@H](C)[C@@H](O[C@@H]2O[C@H](C)C[C@H](N(C(C)C)C3CCC3)[C@H]2O)[C@](C)(OC)C[C@@H](C)C(=O)[C@H](C)[C@H]2N(CCc3ccc(Cl)cc3)C(=O)O[C@]12C [Example 5, 3',3'-N-Bisdesmethyl-3'-N-cyclobutyl-3'-N-isopropyl-11-deoxy-11-[carboxy-(4-chlorophenethylamino)]-6-O-methyl-erythromycin A 11,12-(cyclic carbamate)] |  |  | 0.832 | 0.832 |

More lines, now with the values ahead:

| pA2 (rat pituitary cells) | pKI (receptor binding affinity) [1] | Kb (rat pituitary cells) [nM] | Ki [1] [nM] | Compound |
| --- | --- | --- | --- | --- |
| 8.34 | 9.40 |  |  | 3',3'-N-Bisdesmethyl-3',3'-N-biscyclobutyl-11-deoxy-11-[carboxy-(3,4-difluorophenethylamino)]-6-O-methyl-erythromycin A 11,12-(cyclic carbamate) [Example 18] |
|  |  | 1.55 | 3.16 | CC[C@H]1OC(=O)[C@H](C)[C@@H](O[C@H]2C[C@@](C)(OC)[C@@H](O)[C@H](C)O2)[C@H](C)[C@@H](O[C@@H]2O[C@H](C)C[C@H](N(CC3CC3)CC3CC3)[C@H]2O)[C@](C)(OC)C[C@@H](C)C(=O)[C@H](C)[C@H]2N(CCc3ccc(F)c(F)c3)C(=O)O[C@]12C [Example 17, 3',3'-N-Bisdesmethyl-3',3'-N-biscyclopropylmethyl-11-deoxy-11-[carboxy-(3,4-difluorophenethylamino)]-6-O-methyl-erytromycin A 11,12-(cyclic carbamate)] |
|  |  | 0.759 | 0.251 | CC[C@H]1OC(=O)[C@H](C)[C@@H](O[C@H]2C[C@@](C)(OC)[C@@H](O)[C@H](C)O2)[C@H](C)[C@@H](O[C@@H]2O[C@H](C)C[C@H](N(C3CCC3)C3CCC3)[C@H]2O)[C@](C)(OC)C[C@@H](C)C(=O)[C@H](C)[C@H]2N(CCc3ccc(F)c(Cl)c3)C(=O)O[C@]12C [Example 14, 3',3'-N-Bisdesmethyl-3',3'-N-biscyclobutyl-11-deoxy-11-[carboxy-(3-chloro-4-fluorophenethylamino)]-O-methyl-erythromycin A 11,12-(cyclic carbamate)] |
|  |  | 0.295 | 1.15 | CC[C@H]1OC(=O)[C@H](C)[C@@H](O[C@H]2C[C@@](C)(OC)[C@@H](O)[C@H](C)O2)[C@H](C)[C@@H](O[C@@H]2O[C@H](C)C[C@H](N(CC3CC3)CC3CC3)[C@H]2O)[C@](C)(OC)C[C@@H](C)C(=O)[C@H](C)[C@H]2N(CCc3ccc(Cl)c(F)c3)C(=O)O[C@]12C [Example 13, 3',3'-N-Bisdesmethyl-3',3'-N-biscyclopropylmethyl-11-deoxy-11-[carboxy-(4-chloro-3-fluorophenethylamino)]-6-O-methyl-erythromycin A 11,12-(cyclic carbamate)] |
